In patent US9249125B2, “Pyrazole derivatives as p38 MAP inhibitors” (RESPIVERT LIMITED, priority 2012, dated 2016):

Legend:
d-U937 cells = experiment: Cell viability: MTT assay; type: cell-based, human; settings: 1 μg/mL
How it was run: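 Differentiated U937 cells were exposed to compound at 1 or 10 μg/mL either 4 h in 5% FCS RPMI1640 or 24 h in 10% FCS RPMI1640, then given MTT for 1 h, DMSO-solubilised and read at 550 nm. Percent viability loss versus 0.5% DMSO vehicle; apparent gains appear negative.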

Syk = Syk (Homo sapiens (Human), UniProt P43405); experiment: Syk enzyme inhibition (FRET, Z-LYTE); type: biochemical
How it was run: (§1)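 Z-LYTE FRET kinase assay: enzyme (3000 or 2000 ng/mL stock, respectively) preincubated 2 h at RT with compound (4–0.004 μg/mL stocks), then FRET peptide plus ATP (800 μM stock for c-Src, 60 μM for Syk) added for 1 h. Protease development 1 h; phosphorylation from coumarin/fluorescein emission ratio.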

[1] = system: Poly I:C-induced ICAM-1 expression in BEAS2B cells; experiment: Poly I:C-induced ICAM-1 expression in BEAS2B cells; type: cell-based; settings: Homo sapiens, BEAS-2B, read-out: Poly IC induced ICAM1 in BEAS2B IC50
How it was run: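 BEAS2B human bronchial epithelial cells pre-incubated with compound for 2 hr, then transfected with 1 μg/mL poly I:C plus Oligofectamine. At 18 hr, surface ICAM-1 measured by cell-based ELISA (HRP, OD450–655). Signal corrected for cell number by crystal violet OD595.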

p38 MAPKα = p38 MAPKα (Homo sapiens (Human), UniProt Q16539); experiment: p38 MAPKα enzyme inhibition (FRET, Z-LYTE); type: biochemical
[2] = system: LPS-induced TNFα release in d-U937 cells; experiment: LPS-induced TNFα release in d-U937 cells; type: cell-based; settings: Homo sapiens, dU937, relative to 10 μg/mL BIRB796, read-out: LPS Induced Release of Cytokine in d-937 Cells TNFα REC50
How it was run: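 Human monocytic U937 cells were differentiated to macrophage-type cells with PMA (100 ng/mL) for 48 to 72 hr, pre-treated with test compound for 2 hr, then stimulated 4 hr with E. coli O111:B4 LPS (0.1 μg/mL). Supernatant TNFα and IL-8 were measured by sandwich ELISA; REC50 came from concentration-response curves.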

GSK3α = GSK3α (Homo sapiens (Human), UniProt P49840); experiment: GSK 3α enzyme inhibition (FRET, Z-LYTE); type: biochemical
How it was run: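 GSK3α (500 ng/mL stock) was preincubated 2 hr at RT with compound (4 to 0.004 μg/mL stocks), then FRET peptide (8 μM stock) and ATP (40 μM stock) added for 1 hr. Protease development for 1 hr cleaved unphosphorylated peptide; coumarin/fluorescein emission ratio reported phosphorylation.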

cSrc = cSrc (Homo sapiens (Human), UniProt P12931); experiment: c-Src enzyme inhibition (FRET, Z-LYTE); type: biochemical
How it was run: as §1

[3] = system: LPS-induced IL-8 release in d-U937 cells; experiment: LPS-induced IL-8 release in d-U937 cells; type: cell-based; settings: Homo sapiens, dU937, read-out: LPS Induced Release of Cytokine in d-937 Cells IL-8 IC50
How it was run: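 First, U937 monocytes undergo PMA treatment (100 ng/mL) for 48 to 72 hr to become macrophage-type. Next, compound at final concentrations is added for 2 hr, followed by LPS at 0.1 μg/mL for 4 hr. Finally, cytokines in the supernatant are quantified by ELISA against vehicle-treated cells.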

Chain of p38 MAPKα (Q16539 whole entry): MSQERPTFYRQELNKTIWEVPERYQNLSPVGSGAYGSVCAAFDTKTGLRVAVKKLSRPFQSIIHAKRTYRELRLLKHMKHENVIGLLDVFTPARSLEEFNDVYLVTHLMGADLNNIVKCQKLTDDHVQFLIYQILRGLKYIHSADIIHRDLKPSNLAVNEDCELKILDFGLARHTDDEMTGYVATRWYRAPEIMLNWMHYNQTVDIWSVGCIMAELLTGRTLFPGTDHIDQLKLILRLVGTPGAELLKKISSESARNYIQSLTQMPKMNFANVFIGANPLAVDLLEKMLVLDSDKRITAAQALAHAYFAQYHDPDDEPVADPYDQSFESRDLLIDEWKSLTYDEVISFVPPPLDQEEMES
Chain of cSrc (P12931 whole entry, looked up): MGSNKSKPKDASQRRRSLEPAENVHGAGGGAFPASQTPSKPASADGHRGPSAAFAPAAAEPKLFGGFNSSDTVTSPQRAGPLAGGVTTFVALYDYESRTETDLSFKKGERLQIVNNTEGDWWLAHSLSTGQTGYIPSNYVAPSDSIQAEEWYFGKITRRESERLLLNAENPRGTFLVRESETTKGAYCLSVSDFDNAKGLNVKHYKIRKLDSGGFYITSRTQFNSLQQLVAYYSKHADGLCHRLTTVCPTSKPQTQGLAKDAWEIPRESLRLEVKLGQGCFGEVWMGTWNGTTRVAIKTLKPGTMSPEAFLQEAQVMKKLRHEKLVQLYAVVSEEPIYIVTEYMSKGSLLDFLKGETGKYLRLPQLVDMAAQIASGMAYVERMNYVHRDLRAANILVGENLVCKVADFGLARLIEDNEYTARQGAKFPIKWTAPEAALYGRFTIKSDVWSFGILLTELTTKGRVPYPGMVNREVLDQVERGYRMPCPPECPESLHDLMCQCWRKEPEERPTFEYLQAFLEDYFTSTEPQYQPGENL
Chain of GSK3α (P49840 whole entry): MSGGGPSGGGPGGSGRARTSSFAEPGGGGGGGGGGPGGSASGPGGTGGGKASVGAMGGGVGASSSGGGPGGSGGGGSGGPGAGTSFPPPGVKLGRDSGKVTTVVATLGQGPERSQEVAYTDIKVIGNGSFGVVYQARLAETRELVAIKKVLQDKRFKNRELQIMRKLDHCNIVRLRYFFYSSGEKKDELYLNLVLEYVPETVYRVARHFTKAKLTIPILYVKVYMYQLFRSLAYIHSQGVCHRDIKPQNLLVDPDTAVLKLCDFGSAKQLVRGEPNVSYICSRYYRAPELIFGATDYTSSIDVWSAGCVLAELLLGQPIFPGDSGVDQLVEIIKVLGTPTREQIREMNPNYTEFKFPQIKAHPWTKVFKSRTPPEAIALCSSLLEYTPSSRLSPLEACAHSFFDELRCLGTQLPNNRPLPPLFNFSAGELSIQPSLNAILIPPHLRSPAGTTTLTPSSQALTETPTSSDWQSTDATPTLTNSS

Structure (SMILES)	MTT Assay Cell viability at time point in d-U937 cells 4 h (d-U937 cells)	MTT Assay Cell viability at time point in d-U937 cells 24 h (d-U937 cells)	IC50 (Syk) [nM]	IC50 [1] [nM]	IC50 (p38 MAPKα) [nM]	EC50 [2] [nM]	IC50 (GSK3α) [nM]	IC50 (cSrc) [nM]	IC50 [3] [nM]
COc1ccc(-n2nc(C(C)(C)C)cc2NC(=O)Nc2ccc(Oc3ccnc(Nc4ccc5[nH]ccc5c4)n3)c3ccccc23)cn1 [Example 82, 1-(4-((2-((1H-indol-5-yl)amino)pyrimidin-4-yl)oxy)naphthalen-1-yl)-3-(3-(tert-butyl)-1-(6-methoxypyridin-3-yl)-1H-pyrazol-5-yl)urea]	−ve (−ve and +ve indicate that the value is below and above respectively, the no significant effect threshold, defined as 30% inhibition at 1 μg/mL at the time point indicated.)	−ve (−ve and +ve indicate that the value is below and above respectively, the no significant effect threshold, defined as 30% inhibition at 1 μg/mL at the time point indicated.)	26	2.7	63	1.8	> 1560	10	2.4
Cc1ccc(-n2nc(C(C)(C)C)cc2NC(=O)Nc2ccc(Oc3ccnc(Nc4ccc5c(cnn5C)c4)n3)c3ccccc23)cc1 [Example 26, 1-(3-(tert-butyl)-1-(p-tolyl)-1H-pyrazol-5-yl)-3-(4-((2-((1-methyl-1H-indazol-5-yl)amino)pyrimidin-4-yl)oxy)naphthalen-1-yl)urea]	−ve (−ve and +ve indicate that the value is below and above respectively, the no significant effect threshold, defined as 30% inhibition at 1 μg/mL at the time point indicated.)	−ve (−ve and +ve indicate that the value is below and above respectively, the no significant effect threshold, defined as 30% inhibition at 1 μg/mL at the time point indicated.)	180	2.3	145	2.2	> 15700	12	2.2
CC(C)(C)c1cc(NC(=O)Nc2ccc(Oc3ccnc(Nc4ccc5c(c4)C(=O)NC5)n3)c3ccccc23)n(-c2ccc(OCCN3CCOCC3)cc2)n1 [Example 63, 1-(3-(tert-butyl)-1-(4-(2-morpholinoethoxy)phenyl)-1H-pyrazol-5-yl)-3-(4-((2-((3-oxoisoindolin-5-yl)amino)pyrimidin-4-yl)oxy)naphthalen-1-yl)urea]	−ve (−ve and +ve indicate that the value is below and above respectively, the no significant effect threshold, defined as 30% inhibition at 1 μg/mL at the time point indicated.)	−ve (−ve and +ve indicate that the value is below and above respectively, the no significant effect threshold, defined as 30% inhibition at 1 μg/mL at the time point indicated.)	10	0.3	14	1.5	184	< 1	2.8
CC(C)(C)c1cc(NC(=O)Nc2ccc(Oc3ccnc(Nc4ccc5[nH]ncc5c4)n3)c3ccccc23)n(-c2ccc(O)cc2)n1 [Example 7, 1-(4-((2-((1H-Indazol-5-yl)amino)pyrimidin-4-yl)oxy)naphthalen-1-yl)-3-(3-(tert-butyl)-1-(4-hydroxyphenyl)-1H-pyrazol-5-yl)urea]	−ve (−ve and +ve indicate that the value is below and above respectively, the no significant effect threshold, defined as 30% inhibition at 1 μg/mL at the time point indicated.)	−ve (−ve and +ve indicate that the value is below and above respectively, the no significant effect threshold, defined as 30% inhibition at 1 μg/mL at the time point indicated.)	24	16.1	80	6.2	> 1600	10	17.2
CC(C)(C)c1cc(NC(=O)Nc2ccc(Oc3ccnc(Nc4ccc5[nH]ncc5c4)c3)c3ccccc23)n(-c2ccc(OCCN3CCOCC3)cc2)n1 [Example 67]	−ve (−ve and +ve indicate that the value is below and above respectively, the no significant effect threshold, defined as 30% inhibition at 1 μg/mL at the time point indicated.)	−ve (−ve and +ve indicate that the value is below and above respectively, the no significant effect threshold, defined as 30% inhibition at 1 μg/mL at the time point indicated.)	< 1	2.5	5	1.5	3040	< 1	0.3
